Measurements taken from patent US20100286023A1, “Compositions and Methods for Increasing Muscle Mass, Strength, and Functional Performance in the Elderly” (priority 2008, published 2010).

What was measured:
muscle protein synthesis = details: tightly controlled laboratory setting, glucose infused to maintain euglycemia; cited from earlier work
anesthetized rabbits = test: Amino acid infusion with arginine raised to about 50% of the mixture (Example 6); format: in vivo, rabbit
Description: Muscle protein synthesis was stimulated in anesthetized rabbits when arginine was increased to about 50% of the total mixture of amino acids infused. […] The mechanism by which arginine activates the initiation of protein synthesis is the same as leucine. Further, arginine is relatively deficient in the elderly. Thus, addition of arginine may work in concert with leucine to activate protein synthesis in elderly.

Row | Molecule | Effect on muscle protein synthesis compared with EAAs (muscle protein synthesis) | Muscle protein synthesis (anesthetized rabbits; arginine about 50% of the total mixture of amino acids infused) | Muscle protein breakdown (anesthetized rabbits; arginine added to the amino acid solution) | Net muscle catabolism (anesthetized rabbits; post-absorptive rabbits)
1 | insulin: hormone, pharmacological treatment compared with EAAs | in the same range of effectiveness as EAAs |  |  | 
2 | N=C(N)NCCC[C@H](N)C(=O)O [arginine] |  | stimulated | unchanged | virtually completely reversed
